Values after ≈ are worked out from the molar mass of the structure shown.
Tests used:
Assay type in all cases: cell-based
Aspergillus terreus AT4 [1] = test: MIC, RPMI medium; settings: Aspergillus terreus, AT4, MIC banded into grades, read-out: MIC grade, A. terreus
In short: (§1)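 Fungi are tested in RPMI buffered with 0.135 M MOPS (pH 7.0) plus 2% glucose, inoculum 1−2×10^4 cfu/mL, against doubling compound dilutions spanning 50-0.05 mg/L. After 24-48 h at 35° C, the MIC is the lowest concentration suppressing growth by >80% against drug-free control.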

Aspergillus niger [2] = test: MIC, RPMI medium; settings: Aspergillus niger, MIC banded into grades, read-out: MIC grade, A. niger
In short: as §1

[3] = test system: Aspergillus fumigatus AF293; test: MIC, RPMI medium; settings: Aspergillus fumigatus, AF293, MIC banded into grades, read-out: MIC grade, A. fumigatus
In short: as §1

Aspergillus flavus [4] = test: MIC, RPMI medium; settings: Aspergillus flavus, MIC banded into grades, read-out: MIC grade, A. flavus
In short: as §1

[5] = test system: Aspergillus fumigatus AF210; test: MIC, RPMI medium; settings: Aspergillus fumigatus, AF210, MIC banded into grades, read-out: MIC grade, A. fumigatus 210
In short: as §1

Aspergillus terreus AT49 [6] = test: MIC, RPMI medium; settings: Aspergillus terreus, AT49, MIC banded into grades, read-out: MIC grade, A. terreus 49
In short: as §1

Aspergillus terreus AT4 [7] = test: MIC, YAG medium; settings: Aspergillus terreus, 24 h at 35° C, MIC banded into grades, read-out: MIC grade, A. terreus
In short: (§2)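 Spores from 5-day Sabouraud agar cultures were suspended in YAG medium (1% glucose, 1% ammonium chloride, 0.5% yeast extract) at final inocula of 1−2×10^4 cfu/mL against doubling dilutions of compound (50-0.05 mg/L; 0.5-0.0005 mg/L on repeat). Plates were incubated 24 h at 35° C. MIC was the lowest concentration giving >70% growth inhibition by OD485 versus drug-free control.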

Aspergillus niger [8] = test: MIC, YAG medium; settings: Aspergillus niger, 24 h at 35° C, MIC banded into grades, read-out: MIC grade, A. niger
In short: as §2

[9] = test system: Aspergillus fumigatus AF293; test: MIC, YAG medium; settings: Aspergillus fumigatus, 24 h at 35° C, MIC banded into grades, read-out: MIC grade, A. fumigatus
In short: as §2

Aspergillus flavus [10] = test: MIC, YAG medium; settings: Aspergillus flavus, 24 h, 24 h at 35° C, MIC banded into grades, read-out: MIC grade, A. flavus
In short: as §2

[11] = test system: Aspergillus fumigatus AF210; test: MIC, YAG medium; settings: Aspergillus fumigatus, 24 h at 35° C, MIC banded into grades, read-out: MIC grade, A. fumigatus 210
In short: as §2

Aspergillus terreus AT49 [12] = test: MIC, YAG medium; settings: Aspergillus terreus, 24 h at 35° C, MIC banded into grades, read-out: MIC grade, A. terreus 49
In short: as §2

SMILES	MIC (Aspergillus terreus AT4 [1])	MIC (Aspergillus niger [2])	MIC [3]	MIC (Aspergillus flavus [4])	MIC [5]	MIC (Aspergillus terreus AT49 [6])	MIC (Aspergillus terreus AT4 [7])	MIC (Aspergillus niger [8])	MIC [9]	MIC (Aspergillus flavus [10])	MIC [11]	MIC (Aspergillus terreus AT49 [12])
Cc1cc(C)nc(N2CCN(c3ccc(NC(=O)C(=O)c4c(-c5ccccc5)cc(C)n4C)cc3COCCCN3CCN(C)CC3)CC2)c1 [Example 19, 2-(1,5-Dimethyl-3-phenyl-1H-pyrrol-2-yl)-N-{4-[4-(4,6-dimethyl-pyridin-2-yl)-piperazin-1-yl]-3-[3-(4-methyl-piperazin-1-yl)-propoxymethyl]-phenyl}-2-oxo-acetamide]	> 10 µg/mL	> 10 µg/mL	> 10 µg/mL	> 10 µg/mL	> 10 µg/mL	> 10 µg/mL	> 10 µg/mL	> 10 µg/mL	> 10 µg/mL	1 to 10 µg/mL (≈ 1.48 to 14.8 µM)	> 10 µg/mL	1 to 10 µg/mL (≈ 1.48 to 14.8 µM)
CSCn1c(C)cc(-c2ccccc2)c1C(=O)C(=O)Nc1ccc(N2CCN(c3cc(C)cc(C)n3)CC2)cc1 [Example 137, N-{4-[4-(4,6-Dimethyl-pyridin-2-yl)-piperazin-1-yl]-phenyl}-2-(5-methyl-1-methylsulfanylmethyl-3-phenyl-1H-pyrrol-2-yl)-2-oxo-acetamide]	1 to 10 µg/mL (≈ 1.81 to 18.1 µM)	1 to 10 µg/mL (≈ 1.81 to 18.1 µM)	< 1 µg/mL	1 to 10 µg/mL (≈ 1.81 to 18.1 µM)	1 to 10 µg/mL (≈ 1.81 to 18.1 µM)	1 to 10 µg/mL (≈ 1.81 to 18.1 µM)	< 1 µg/mL	< 1 µg/mL	< 1 µg/mL	< 1 µg/mL	< 1 µg/mL	< 1 µg/mL
Cc1cc(-c2ccccc2)c(C(=O)C(=O)Nc2ccc(N3CCCCC3)cc2F)n1C [Example 106, 2-(1,5-Dimethyl-3-phenyl-1H-pyrrol-2-yl)-N-(2-fluoro-4-piperidin-1-yl-phenyl)-2-oxo-acetamide]	< 1 µg/mL	< 1 µg/mL	< 1 µg/mL	< 1 µg/mL	< 1 µg/mL	< 1 µg/mL	< 1 µg/mL	< 1 µg/mL	< 1 µg/mL	< 1 µg/mL	< 1 µg/mL	< 1 µg/mL
Cc1cc(C)nc(N2CCN(c3ccc(NC(=O)C(=O)c4c(-c5ccccc5)cc(C(C)C)n4C)cc3)CC2)c1 [Example 20, N-{4-[4-(4,6-Dimethyl-pyridin-2-yl)-piperazin-1-yl]-phenyl}-2-(5-isopropyl-1-methyl-3-phenyl-1H-pyrrol-2-yl)-2-oxo-acetamide]	> 10 µg/mL	> 10 µg/mL	> 10 µg/mL	> 10 µg/mL	> 10 µg/mL	1 to 10 µg/mL (≈ 1.87 to 18.7 µM)	< 1 µg/mL	> 10 µg/mL	> 10 µg/mL	> 10 µg/mL	< 1 µg/mL	< 1 µg/mL
COCCn1c(C)cc(-c2ccccc2)c1C(=O)C(=O)Nc1ccc(N2CCN(c3cc(C)cc(C)n3)CC2)cc1F [Example 123, N-{4-[4-(4,6-Dimethyl-pyridin-2-yl)-piperazin-1-yl]-2-fluoro-phenyl}-2-[1-(2-methoxy-ethyl)-5-methyl-3-phenyl-1H-pyrrol-2-yl)-2-oxo-acetamide]	< 1 µg/mL	< 1 µg/mL	< 1 µg/mL	< 1 µg/mL	< 1 µg/mL	1 to 10 µg/mL (≈ 1.76 to 17.6 µM)	< 1 µg/mL	< 1 µg/mL	< 1 µg/mL	< 1 µg/mL	< 1 µg/mL	< 1 µg/mL
Cc1cc(C)nc(N2CCN(c3ccc(NC(=O)C(=O)c4c(-c5ccccc5)cc(C)n4C(C)C)cc3)CC2)c1 [Example 8, N-{4-[4-(4,6-Dimethyl-pyridin-2-yl)-piperazin-1-yl]-phenyl}-2-(1-isopropyl-5-methyl-3-phenyl-1H-pyrrol-2-yl)-2-oxo-acetamide]	1 to 10 µg/mL (≈ 1.87 to 18.7 µM)	1 to 10 µg/mL (≈ 1.87 to 18.7 µM)	1 to 10 µg/mL (≈ 1.87 to 18.7 µM)	> 10 µg/mL	1 to 10 µg/mL (≈ 1.87 to 18.7 µM)	1 to 10 µg/mL (≈ 1.87 to 18.7 µM)	1 to 10 µg/mL (≈ 1.87 to 18.7 µM)	< 1 µg/mL	< 1 µg/mL	1 to 10 µg/mL (≈ 1.87 to 18.7 µM)	< 1 µg/mL	1 to 10 µg/mL (≈ 1.87 to 18.7 µM)
Cc1cc(C)nc(N2CCN(c3ccc(NC(=O)C(=O)c4c(-c5ccco5)cc(C)n4C)cc3)CC2)c1 [Example 12, N-{4-[4-(4,6-Dimethyl-pyridin-2-yl)-piperazin-1-yl]-phenyl}-2-(3-furan-2-yl-1,5-dimethyl-1H-pyrrol-2-yl)-2-oxo-acetamide]	< 1 µg/mL	< 1 µg/mL	< 1 µg/mL	< 1 µg/mL	< 1 µg/mL	< 1 µg/mL	< 1 µg/mL	< 1 µg/mL	< 1 µg/mL	< 1 µg/mL	< 1 µg/mL	< 1 µg/mL
C=C(C)CN1CCN(c2ccc(NC(=O)C(=O)c3c(-c4ccccc4)cc(C)n3C)c(F)c2)CC1 [Example 108, 2-(1,5-Dimethyl-3-phenyl-1H-pyrrol-2-yl)-N-{2-fluoro-4-[4-(2-methyl-allyl)-piperazin-1-yl]-phenyl}-2-oxo-acetamide]	< 1 µg/mL	< 1 µg/mL	< 1 µg/mL	< 1 µg/mL	< 1 µg/mL	< 1 µg/mL	< 1 µg/mL	< 1 µg/mL	< 1 µg/mL	< 1 µg/mL	< 1 µg/mL	< 1 µg/mL
CCCCOCn1c(C)cc(-c2ccccc2)c1C(=O)C(=O)Nc1ccc(N2CCN(c3cc(C)cc(C)n3)CC2)cc1 [Example 135, 2-(1-Butoxymethyl-5-methyl-3-phenyl-1H-pyrrol-2-yl)-N-{4-[4-(4,6-dimethyl-pyridin-2-yl)-piperazin-1-yl]-phenyl}-2-oxo-acetamide]	> 10 µg/mL	> 10 µg/mL	> 10 µg/mL	> 10 µg/mL	> 10 µg/mL	> 10 µg/mL	1 to 10 µg/mL (≈ 1.72 to 17.2 µM)	1 to 10 µg/mL (≈ 1.72 to 17.2 µM)	< 1 µg/mL	> 10 µg/mL	1 to 10 µg/mL (≈ 1.72 to 17.2 µM)	> 10 µg/mL
COCCCn1c(C)cc(-c2ccccc2)c1C(=O)C(=O)Nc1ccc(N2CCN(c3cc(C)cc(C)n3)CC2)cc1 [Example 28, N-{4-[4-(4,6-Dimethyl-pyridin-2-yl)-piperazin-1-yl]-phenyl}-2-[1-(3-methoxy-propyl)-5-methyl-3-phenyl-1H-pyrrol-2-yl]-2-oxo-acetamide]	1 to 10 µg/mL (≈ 1.77 to 17.7 µM)	< 1 µg/mL	< 1 µg/mL	1 to 10 µg/mL (≈ 1.77 to 17.7 µM)	< 1 µg/mL	1 to 10 µg/mL (≈ 1.77 to 17.7 µM)	< 1 µg/mL	< 1 µg/mL	< 1 µg/mL	1 to 10 µg/mL (≈ 1.77 to 17.7 µM)	< 1 µg/mL	< 1 µg/mL
Cc1cc(-c2ccccc2)c(C(=O)C(=O)Nc2ccc(-c3ncco3)c(F)c2)n1C [Example 148, 2-(1,5-Dimethyl-3-phenyl-1H-pyrrol-2-yl)-N-[3-fluoro-4-oxazole-2-yl-phenyl)-2-oxo-acetamide]	< 1 µg/mL	< 1 µg/mL	< 1 µg/mL	< 1 µg/mL	1 to 10 µg/mL (≈ 2.48 to 24.8 µM)	< 1 µg/mL	< 1 µg/mL	< 1 µg/mL	< 1 µg/mL	< 1 µg/mL	< 1 µg/mL	< 1 µg/mL
Cc1cc(-c2ccccc2)c(C(=O)C(=O)Nc2ccc(N3CCOCC3)cc2F)n1C [Example 101, 2-(1,5-Dimethyl-3-phenyl-1H-pyrrol-2-yl)-N-(2-fluoro-4-morpholin-4-yl-phenyl)-2-oxo-acetamide]	< 1 µg/mL	< 1 µg/mL	< 1 µg/mL	< 1 µg/mL	< 1 µg/mL	< 1 µg/mL	< 1 µg/mL	< 1 µg/mL	< 1 µg/mL	< 1 µg/mL	< 1 µg/mL	< 1 µg/mL

Source: patent US8993574B2, “Pyrrole antifungal agents” (F2G Ltd, priority 2008, dated 2015)
